Assay results as given in patent US20260109709A1 (MIRATI THERAPEUTICS, INC., priority 2021, published 2026).
Counter-ions that a name gives are not always drawn. Like-named read-outs stand apart in the source and are kept apart here.

Biological target: T1, PRMT5/MEP50 complex (Homo sapiens, UniProt O14744)
T1 construct: purchased Reaction Biology Corporation
Assay: PRMT5:MEP50 FlashPlate Assay (histone H4 peptide methylation)
Format: biochemical
Conditions: 40 nM H4 (1-15) peptide, 1 μM SAM
Procedure: The PRMT5 inhibitory activity of compounds of the present invention was determined using a PRMT5: MEP50 FlashPlate Assay and a PRMT5: MEP50 HotSpot Assay (Reaction Biology Corporation).
The assay uses purified human, PRMT5 enzyme to convert S-adenosyl-L-[methyl-3H]methionine plus histone H4 L-arginine to S-adenosyl-L-homocysteine plus histone H4 [methyl-3H]-L-arginine. The assay was carried out using Streptavidin-coated FlashPlates (Perkin Elmer), which contained a scintillant embedded in the plastic of the plate. The histone H4 peptide substrate was conjugated with biotin, which binds to the streptavidin-coated well of the plate, placing the H4 peptide in close proximity to the side well and the scintillant. The transfer of the tritiated methyl group from S-adenosyl-L-[methyl-3H]methionine to the bound histone H4 peptide generated a radiolabeled histone H4, which was quantitated by measuring in a scintillation counter to determine the activity of PRMT5 enzyme in the presence and absence of compound. […] Briefly, compounds of the present invention were solubilized in 100% DMSO at a highest concentration of 10 mM. […] Control samples lacking compound, PRMT5/MEP50 complex or various reaction components also were prepared and processed in parallel with compound test samples. SAH was used as a positive control for assay validation. To measure PRMT5 inhibitory activity, 3 nM PRMT5/MEP50 complex (Reaction Biology Corporation) was preincubated with test compound in assay buffer containing 40 nM histone H4 peptide (amino acids 1-15)-Biotin conjugate for 20 min at room temperature. The enzymatic reaction was initiated by adding 1 μM tritiated S-adenosyl methionine (final concentration) and the reaction is allowed to proceed for 20 min. The reaction was stopped and the amount of bound, tritiated H4 peptide in each sample was determined using a scintillation counter.

T1 sequence (O14744 2-637 limits assumed): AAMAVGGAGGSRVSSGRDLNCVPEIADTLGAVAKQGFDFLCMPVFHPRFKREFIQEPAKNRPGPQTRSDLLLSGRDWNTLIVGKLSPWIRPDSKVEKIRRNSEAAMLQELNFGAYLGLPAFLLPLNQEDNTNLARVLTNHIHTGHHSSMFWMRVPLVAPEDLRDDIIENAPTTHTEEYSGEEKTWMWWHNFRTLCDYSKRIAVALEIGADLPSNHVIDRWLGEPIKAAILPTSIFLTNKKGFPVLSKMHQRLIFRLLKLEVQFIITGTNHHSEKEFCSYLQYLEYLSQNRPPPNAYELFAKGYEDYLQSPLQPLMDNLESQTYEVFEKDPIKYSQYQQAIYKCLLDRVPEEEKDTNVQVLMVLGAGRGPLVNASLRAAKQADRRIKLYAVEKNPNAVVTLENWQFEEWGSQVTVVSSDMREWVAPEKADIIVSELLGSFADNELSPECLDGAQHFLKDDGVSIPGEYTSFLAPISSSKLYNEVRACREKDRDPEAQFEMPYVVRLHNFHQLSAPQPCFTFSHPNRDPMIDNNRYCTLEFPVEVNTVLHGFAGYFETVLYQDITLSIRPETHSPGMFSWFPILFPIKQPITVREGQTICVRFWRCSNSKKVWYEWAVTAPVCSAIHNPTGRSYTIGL
T1 sequence (Q9BQA1 2-342 partner limits assumed): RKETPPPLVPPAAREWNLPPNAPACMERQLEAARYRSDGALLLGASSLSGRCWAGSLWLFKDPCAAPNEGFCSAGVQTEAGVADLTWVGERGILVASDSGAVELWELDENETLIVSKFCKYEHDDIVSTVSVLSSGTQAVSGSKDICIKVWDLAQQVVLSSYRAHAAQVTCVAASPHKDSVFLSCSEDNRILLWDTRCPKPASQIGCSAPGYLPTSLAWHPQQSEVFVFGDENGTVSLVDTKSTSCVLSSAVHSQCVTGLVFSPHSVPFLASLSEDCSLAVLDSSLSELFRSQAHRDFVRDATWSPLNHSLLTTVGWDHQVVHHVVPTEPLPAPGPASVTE

| IC50 (IC50 + 2 μM MTA, plus 2 μM MTA) [µM] | IC50 (absence of MTA, read-out: IC50) [µM] | Compound |
| --- | --- | --- |
| > 300 |  | Cn1nccc1-c1cccc2c1nc(N)n2C [Example 1-67, 1-methyl-4-(1-methyl-1H-pyrazol-5-yl)-1H-benzo[d]imidazol-2-amine] |
| > 300 | > 300 | Cn1c(N)nc2c(-c3cnoc3)ccc(Cl)c21 [Example 2-7, 7-chloro-4-isoxazol-4-yl-1-methyl-benzimidazol-2-amine] |
| > 300 | > 300 | CN1C(=O)CCC1c1ccc(Cl)c2c1nc(N)n2C (stereo not drawn) [Example 2-5, 5-(2-amino-7-chloro-1-methyl-benzimidazol-4-yl)-1-methyl-pyrrolidin-2-one hydrochloride] |
| > 300 |  | Cn1c(N)nc2c(Nc3ccncn3)cccc21 [Example 1-32, 1-methyl-N4-(pyrimidin-4-yl)-1H-benzo[d]imidazole-2,4-diamine] |
| > 300 |  | Cn1c(N)nc2c(Nc3cnccn3)cccc21 [Example 1-76, 1-methyl-N4-(pyrazin-2-yl)-1H-benzo[d]imidazole-2,4-diamine] |
| > 300 | > 300 | Cn1c(N)nc2cc(Cc3ccncc3)cc(C#N)c21 [Example 3-4, 2-amino-3-methyl-6-(4-pyridylmethyl)benzimidazole-4-carbonitrile] |
| > 300 |  | CCO[C@@H]1COC[C@H]1Nc1cccc2c1nc(N)n2C (racemic) [Example 1-7, rac-N4-((3R,4S)-4-ethoxytetrahydrofuran-3-yl)-1-methyl-1H-benzo[d]imidazole-2,4-diamine] |
| > 300 |  | Cn1c(N)nc2c(-c3ccnnc3)cccc21 [Example 1-72] |
| > 300 |  | Cc1cc(-c2cccc3c2nc(N)n3C)cnc1O [Example 1-70, 5-(2-amino-1-methyl-1H-benzo[d]imidazol-4-yl)-3-methylpyridin-2-ol] |
| > 300 |  | Cc1nn(C(C)C)cc1Nc1cccc2c1nc(N)n2C [Example 1-74, N4-(1-isopropyl-3-methyl-1H-pyrazol-4-yl)-1-methyl-1H-benzo[d]imidazole-2,4-diamine] |
| > 300 |  | Cn1c(N)nc2c(NCCN3CC4CC4C3)cccc21 (stereo not drawn) [Example 1-8, N4-(2-(3-azabicyclo[3.1.0]hexan-3-yl)ethyl)-1-methyl-1H-benzo[d]imidazole-2,4-diamine] |
| > 300 | > 300 | Cn1cc(-c2ccc(Cl)c3c2nc(N)n3C)cn1 [Example 2-1, 7-chloro-1-methyl-4-(1-methylpyrazol-4-yl)benzimidazol-2-amine hydrochloride] |
| > 300 |  | Cn1c(N)nc2c(-c3ccncc3)cccc21 [Example 1-66, 1-methyl-4-(pyridin-4-yl)-1H-benzo[d]imidazol-2-amine] |
| > 300 |  | Cn1c(N)nc2cc(-c3cn[nH]c3)ccc21 [Example 1-60, 1-methyl-5-(1H-pyrazol-4-yl)-1H-benzo[d]imidazol-2-amine] |
| > 300 | > 300 | CN1CCOC(Cc2ccc(Cl)c3c2nc(N)n3C)C1 (stereo not drawn) [Example 2-6, 7-chloro-1-methyl-4-[(4-methylmorpholin-2-yl)methyl]benzimidazol-2-amine] |
| > 300 |  | Cn1c(N)nc2c(-c3ccccc3)cccc21 [Example 1-65, 1-methyl-4-phenyl-1H-benzo[d]imidazol-2-amine] |
| > 300 |  | Cn1c(N)nc2c(-c3cncnc3)cccc21 [Example 1-62, 1-methyl-4-(pyrimidin-5-yl)-1H-benzo[d]imidazol-2-amine] |
| 0.73 | 280 | CCn1cnnc1CNc1cc(C#N)c2c(c1)nc(N)n2C [Example 3-24, 2-amino-5-(((4-ethyl-4H-1,2,4-triazol-3-yl)methyl)amino)-1-methyl-1H-benzo[d]imidazole-7-carbonitrile] |

| IC50 (IC50 + 2 μM MTA, plus 2 μM MTA) [µM] | IC50 (absence of MTA, read-out: IC50) [µM] | Compound |
| --- | --- | --- |
| > 300 |  | CN(Cc1nnc2n1CCOC2)c1cccc2c1nc(N)n2C [Example 1-51, N4-((5,6-dihydro-8H-[1,2,4]triazolo[3,4-c][1,4]oxazin-3-yl)methyl)-N4,1-dimethyl-1H-benzo[d]imidazole-2,4-diamine] |
| > 300 |  | Cn1c(N)nc2cc(-c3cccnc3)ccc21 [Example 1-54, 1-methyl-5-(pyridin-3-yl)-1H-benzo[d]imidazol-2-amine] |
| 180 |  | Cn1c(N)nc2c(NCc3cn4cccc(F)c4n3)cccc21 [Example 1-75, N4-((8-fluoroimidazo[1,2-a]pyridin-2-yl)methyl)-1-methyl-1H-benzo[d]imidazole-2,4-diamine] |
| > 300 |  | Cn1c(N)nc2c(Nc3ncccn3)cccc21 [Example 1-78, 1-methyl-N4-(pyrimidin-2-yl)-1H-benzo[d]imidazole-2,4-diamine] |
| > 300 | > 300 | Cn1c(N)nc2cc(C(F)(F)c3cccnc3)cc(C#N)c21 [Example 3-17, 2-amino-6-[difluoro (3-pyridyl)methyl]-3-methyl-benzimidazole-4-carbonitrile] |
| 0.006 | 2.48 | CC(=O)N(Cc1cc(C#N)c2c(c1)nc(N)n2C)c1ccc2ccccc2c1C#N [Example 3-25, N-[(2-amino-7-cyano-1-methyl-benzimidazol-5-yl)methyl]-N-(1-cyano-2-naphthyl) acetamide] |
| > 300 | > 300 | CCn1c(N)nc2ncccc21 [Example 5-1, 1-ethyl-1H-imidazo[4,5-b]pyridin-2-amine hydrochloride] |
| > 300 |  | Cc1nnc(CN(C)c2cccc3c2nc(N)n3C)n1C [Example 1-50, N4-((4,5-dimethyl-4H-1,2,4-triazol-3-yl)methyl)-N4,1-dimethyl-1H-benzo[d]imidazole-2,4-diamine] |
| > 300 |  | Cc1ncccc1-c1ccc2c(c1)nc(N)n2C [Example 1-58, 1-methyl-5-(2-methylpyridin-3-yl)-1H-benzo[d]imidazol-2-amine] |
| > 300 |  | Cn1ccc(-c2cccc3c2nc(N)n3C)n1 [Example 1-68, 1-methyl-4-(1-methyl-1H-pyrazol-3-yl)-1H-benzo[d]imidazol-2-amine] |
| > 300 |  | Cn1c(N)nc2c(-c3cccnc3)cccc21 [Example 1-64, 1-methyl-4-(pyridin-3-yl)-1H-benzo[d]imidazol-2-amine] |
| 0.43 | 155 | Cn1nnc(CNc2cc(C#N)c3c(c2)nc(N)n3C)c1C(F)F [Example 3-23, 2-amino-5-(((5-(difluoromethyl)-1-methyl-1H-1,2,3-triazol-4-yl)methyl)amino)-1-methyl-1H-benzo[d]imidazole-7-carbonitrile] |
| > 300 |  | Cn1c(N)nc2cc(-c3cncnc3)ccc21 [Example 1-52, 1-methyl-5-(pyrimidin-5-yl)-1H-benzo[d]imidazol-2-amine] |
| 50.7 |  | Cn1c(N)nc2cc(Nc3cnccn3)ccc21 [Example 1-82, 1-methyl-N5-(pyrazin-2-yl)-1H-benzo[d]imidazole-2,5-diamine] |
| 34.5 |  | Cn1c(N)nc2cc(-c3occc3C#N)ccc21 [Example 1-61, 2-(2-amino-1-methyl-1H-benzo[d]imidazol-5-yl)furan-3-carbonitrile] |
| > 300 |  | Cn1cc(-c2cccc3c2nc(N)n3C)ccc1=O [Example 1-71, 5-(2-amino-1-methyl-1H-benzo[d]imidazol-4-yl)-1-methylpyridin-2(1H)-one] |
| > 300 |  | Cn1c(N)nc2c(Nc3cnn(CCN4CCCC4=O)c3)cccc21 [Example 1-13, 1-(2-(4-((2-amino-1-methyl-1H-benzo[d]imidazol-4-yl)amino)-1H-pyrazol-1-yl)ethyl)pyrrolidin-2-one] |
